From patent publication US9545438B2, “Determination of antigenicity of an inactivated virus” (Universiteit Gent, priority 2008, dated 2017)

How the values were obtained:
[1] = tested on: CHO^Sn-CD163 cell line IF3; experiment: Binding, internalization, fusion and infection in CHO^Sn-CD163 cell line IF3; format: cell-based, Chinese Hamster
Protocol: (§1) Macrophages or CHO cells (including CHO^Sn and CHO^Sn-CD163 cells, i.e., the CHO cells expressing sialoadhesin and CD163 deposited on May 14, 2008 at the Belgian Coordinated Collections of Microorganisms as CHO^Sn/CD163 IC5; CHO^Sn/CD163 ID9 and CHO^Sn/CD163 IF3 with the respective accession numbers (LMBP 6677CB, LMBP 6678CB, and […]) were incubated for one hour at 37° C. with the treated PRRSV and fixed with methanol. Then the capsid protein was stained with a primary antibody P3/27 and a secondary antibody goat-anti-mouse FITC. Confocal analysis was performed to determine the amount of internalized PRRSV.
(§2) Macrophages, CHO^Sn or CHO^Sn-CD163 cells were seeded at 200,000 cells/ml in a 24-well plate with insert. After two days, the cells were inoculated with wild-type Lelystad Virus (LV) grown on MARC-145 cells and inactivated LV grown on MARC-145 cells. The cells were fixed with methanol after one hour at 4° C. (binding; 0 hpi), one hour at 37° C. (internalization), five hours at 37° C. […] (infection) and 24 hours at 37° C. (infection). The virus was stained with a primary antibody P3/27 (anti-capsid) and a secondary antibody goat-anti-mouse FITC. The virus particles were counted with a confocal microscope.

[2] = tested on: CHO^Sn-CD163 cell line ID9; experiment: Binding, internalization, fusion and infection in CHO^Sn-CD163 cell line ID9; format: cell-based, Chinese Hamster
Protocol: as §1, §2

[3] = tested on: CHO^Sn-CD163 cell line IC5; experiment: Binding, internalization, fusion and infection in CHO^Sn-CD163 cell line IC5; format: cell-based, Chinese Hamster
Protocol: as §1, §2

MARC-145 cells = experiment: Virus titration of treated PRRSV on MARC-145 cells (inactivation curve); format: cell-based; settings: four hours at 37° C.
Protocol: Formaldehyde was then removed by ultracentrifugation. Inactivation with glutaraldehyde was performed with purified virus (10^7 TCID50/ml) that was incubated for four hours at 37° C. with different concentrations (0-0.005-0.05-0.5-5 or 50 ng/ml) glutaraldehyde (Sigma) (Darnell et al., 2004). Glutaraldehyde was removed by ultracentrifugation afterwards. For inactivation with 2,2-dithiodipyridine (AT-2), purified virus (10^7 TCID50/ml) was incubated for four hours at 37° C. with different concentrations (0-10-30-100-300 or 1000 μM) AT-2 (Aldrich) (Rossio et al., 1998; Chertova et al., 2003). Afterwards, AT-2 was removed by ultracentrifugation. For inactivation by changing the pH, the pH was adjusted with HCl of 32% to pH2 and with NaOH to pH12. Purified virus (10^7 TCID50/ml) was incubated for several hours at a pH2 or at a pH12. After incubation, the pH was neutralized (Darnell et al., 2004). For inactivation of PRRSV at a certain temperature, purified virus (10^7 TCID50/ml) was incubated for several (0-6-12-24-48 or 72) hours at 37° C. […]
Virus titration was performed in a 96-well plate with a confluent monolayer of MARC-145 cells. […] After three to five days incubation at 37° C., the occurrence of cytopathic effect (CPE) was investigated and the 50% tissue culture infective dose (TCID50) could be calculated. […]

macrophages = experiment: Attachment, internalization, fusion and replication of inactivated PRRSV in macrophages by immunostaining and confocal microscopy; format: cell-based, porcine; settings: 1 hpi
Source text: The European strain Lelystad virus (LV) of PRRSV (Wensvoort et al., 1991) grown on MARC-145 cells (5th passage) was used for inactivation. MARC-145 cells cultivated in minimum Eagle's medium (MEM) with 5% FCS, 1% glutamine, 1% penicillin-streptomycin and 1% kanamycin were used for LV production and titration of inactivated virus. Attachment and internalization of the inactivated virus was investigated in macrophages that where cultivated in medium containing RPMI 1640, 10% FCS, 1% penicillin-streptomycin, 1% kanamycin, 1% gentamycin, 1% tylosin, 1% glutamine, 1% nonessential amino acids and 1% sodium pyruvate for 24 hours before inoculation. When CHO cells were used, the cells were cultivated in F12 with 10% FCS, 1% penicillin-streptomycin, 1% kanamycin, 1% glutamine, and 1% sodium pyruvate and were transfected with sialoadhesin. As the macrophages, the CHO cells were also cultivated 24 hours before inoculation. […]
Macrophages, CHO^Sn or CHO^Sn-CD163 cells were seeded at 200,000 cells/ml in a 24-well plate with insert. […] The virus particles were counted with a confocal microscope.

Row | Structure (SMILES) | Binding (particles counted at 0 hpi) [1] [particles] | Fusion (particles counted at 5 hpi) [1] [particles] | Infection 12 hpi (%) [1] [%] | Infection 24 hpi (%) [1] [%] | Internalization (particles counted at 1 hpi) [1] [particles] | Binding (particles counted at 0 hpi) [2] [particles] | Fusion (particles counted at 5 hpi) [2] [particles] | Infection 12 hpi (%) [2] [%] | Infection 24 hpi (%) [2] [%] | Internalization (particles counted at 1 hpi) [2] [particles] | Binding (particles counted at 0 hpi) [3] [particles] | Fusion (particles counted at 5 hpi) [3] [particles] | Infection 12 hpi (%) [3] [%] | Infection 24 hpi (%) [3] [%] | Internalization (particles counted at 1 hpi) [3] [particles] | infectious virus detected by titration (MARC-145 cells; lowest concentration of 10 pg/ml formaldehyde) | internalization in macrophages (macrophages; 0.1 ng/ml formaldehyde) | infectious virus detected by titration (MARC-145 cells; 0.5 ng/ml glutaraldehyde or more) | internalization in macrophages (macrophages; 50 ng/ml glutaraldehyde)
1 | C=O [formaldehyde] | 1 | 1 | 0 | 0 | 0 | 2 | 0 | 0 | 0 | 0 | 0 | 0 | 0 | 0 | 0 | no infectious virus detected | no longer able to internalize |  | 
2 | O=CCCCC=O [glutaraldehyde] | 2 | 1 | 0 | 0 | 0 | 0 | 0 | 0 | 0 | 0 | 1 | 0 | 0 | 0 | 0 |  |  | no infectious virus could be detected | no longer able to internalize
